Laboratory results as given in patent US20250353891A1 (MEDIMMUNE LIMITED, priority 2022, published 2025).
Starred links: 1 amine or outer side, 2 acyl side, 3 side chain; linkers in the order of their positions; H or OH if unused. Non-standard residues stand in square brackets, D forms with d. Residues, ends and D or L forms follow the SMILES beside them. Groups on a side chain read outwards from the residue. *: point of attachment. C20 diacid = O=C(O)CCCCCCCCCCCCCCCCCCC(=O)*; C18 diacid = O=C(O)CCCCCCCCCCCCCCCCC(=O)*; γGlu = O=C(O)[C@H](CCC(=O)[*:2])N[*:1]; αMeF = C[C@](N)(Cc1ccccc1)C(=O)O; AEEA = NCCOCCOCC(=O)O; Aib = CC(C)(N)C(=O)O

Assays:
[1] = target: human glucagon receptor (hGCGR) (Homo sapiens, UniProt P47871); assay: cAMP production (HTRF) in CHO cells expressing hGCGR; assay type: cell-based; set-up: expressed in transfected cells; conditions: Table 6, peptides modified at position 17; cAMP in CHO hGCGR cells; geometric mean; read-out: hGluc-R EC50
human glucagon receptor (hGCGR), sequence (P47871 26-477): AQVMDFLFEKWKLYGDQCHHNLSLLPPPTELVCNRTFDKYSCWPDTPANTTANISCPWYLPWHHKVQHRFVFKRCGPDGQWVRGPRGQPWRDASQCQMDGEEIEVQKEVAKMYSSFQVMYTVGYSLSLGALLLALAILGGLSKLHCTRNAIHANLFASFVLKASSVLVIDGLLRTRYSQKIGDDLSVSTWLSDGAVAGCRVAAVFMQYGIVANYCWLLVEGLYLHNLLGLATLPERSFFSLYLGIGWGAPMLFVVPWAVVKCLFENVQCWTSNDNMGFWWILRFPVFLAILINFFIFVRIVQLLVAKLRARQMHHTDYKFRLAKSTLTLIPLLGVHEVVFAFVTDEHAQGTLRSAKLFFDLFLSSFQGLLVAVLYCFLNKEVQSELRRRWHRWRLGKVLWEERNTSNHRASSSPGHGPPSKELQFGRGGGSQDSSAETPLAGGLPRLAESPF
Experimental: (§1) Cells were re-suspended in assay buffer at a batch-dependent optimized concentration (typically hGLP-1R cells at 1×10^5 cells/mL, hGCGR cells at 2×10^5 cells/mL).
(§2) Cells were added to the assay plate using a multidrop dispenser and incubated at room temperature for 30 minutes before measuring the cAMP level using a cAMP dynamic 2 homogeneous time resolved Fluorescence (HTRF) kit (Cisbio Bioassays #62AM4PEJ) following the two-step protocol as per manufacturer's recommendations. In brief, anti-cAMP cryptate (donor fluorophore) and cAMP-d2 (acceptor fluorophore) were made up separately by diluting each 1 in 20 in conjugate and lysis buffer provided in the kit. Anti-CAMP cryptate was added to all wells of the assay plate, followed by cAMP-d2 added to all wells except non-specific binding (NSB) wells (to which conjugate and lysis buffer was added).
(§3) Data was transformed to % Delta F as described in the manufacturer's guidelines and analyzed by 4-parameter logistic fit to determine EC50 values.

[2] = target: human GLP-1 receptor (hGLP-1R) (Homo sapiens, UniProt P43220); assay: cAMP production (HTRF) in CHO cells expressing hGLP-1R; assay type: cell-based; set-up: expressed in transfected cells; conditions: for EC50: Table 6, peptides modified at position 17, cAMP in CHO hGLP-1R cells, geometric mean, read-out: hGLP-1R EC50; for % Relative Potency Ratio: % GLP-1R activity relative to GLP-1 / % GlucR activity relative to glucagon
human GLP-1 receptor (hGLP-1R), sequence (P43220 24-463): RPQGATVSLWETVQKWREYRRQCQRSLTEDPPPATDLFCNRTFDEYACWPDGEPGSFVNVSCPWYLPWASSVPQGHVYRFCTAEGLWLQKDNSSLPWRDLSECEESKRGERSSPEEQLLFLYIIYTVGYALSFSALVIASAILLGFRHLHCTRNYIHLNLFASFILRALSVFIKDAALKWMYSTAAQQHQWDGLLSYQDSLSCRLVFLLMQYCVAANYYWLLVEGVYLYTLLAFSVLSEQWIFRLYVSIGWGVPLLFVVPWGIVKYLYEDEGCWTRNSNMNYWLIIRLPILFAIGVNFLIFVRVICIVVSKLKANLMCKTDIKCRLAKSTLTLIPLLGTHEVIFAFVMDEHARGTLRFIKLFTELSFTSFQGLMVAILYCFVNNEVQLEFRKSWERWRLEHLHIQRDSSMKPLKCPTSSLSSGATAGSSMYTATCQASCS
Experimental: as §1, §2, §3

Compound	EC50 [1] [nM]	EC50 [2] [nM]	% Relative Potency Ratio ([2]; Table 6)	% Relative Potency Ratio [2]
CC[C@H](C)[C@H](NC(=O)C(C)(C)NC(=O)[C@H](CCC(N)=O)NC(=O)[C@@H](NC(=O)[C@](C)(Cc1ccccc1)NC(=O)[C@H](CC(=O)O)NC(=O)[C@H](CCC(N)=O)NC(=O)[C@H](C)NC(=O)[C@H](C)NC(=O)[C@H](CCCCNC(=O)COCCOCCNC(=O)COCCOCCNC(=O)CC[C@H](NC(=O)CCCCCCCCCCCCCCCCC(=O)O)C(=O)O)NC(=O)[C@H](CO)NC(=O)[C@H](CC(=O)O)NC(=O)[C@H](CC(C)C)NC(=O)C(C)(C)NC(=O)[C@H](CCCCN)NC(=O)[C@H](CO)NC(=O)[C@@H](NC(=O)[C@H](CC(=O)O)NC(=O)[C@H](CO)NC(=O)[C@@H](NC(=O)[C@](C)(Cc1ccccc1)NC(=O)[C@H](CO)NC(=O)CNC(=O)[C@H](CCC(N)=O)NC(=O)[C@H](CO)NC(=O)[C@@H](N)Cc1c[nH]cn1)[C@@H](C)O)C(C)C)C(C)C)C(=O)N[C@@H](C)C(=O)N[C@@H](CC(N)=O)C(N)=O [Peptide 1] (H-HSQGS[αMeF]TSDVSK[Aib]LDSK([AEEA-AEEA-γGlu-C18 diacid])AAQD[αMeF]VQ[Aib]IAN-NH2; N-terminus assumed)	> 27.1	3.2	–	–
CC[C@H](C)[C@H](NC(=O)[C@H](Cc1c[nH]c2ccccc12)NC(=O)[C@H](CCC(N)=O)NC(=O)[C@@H](NC(=O)[C@](C)(Cc1ccccc1)NC(=O)[C@H](CC(=O)O)NC(=O)[C@H](CCC(N)=O)NC(=O)[C@H](C)NC(=O)[C@H](C)NC(=O)[C@H](CCCCNC(=O)COCCOCCNC(=O)COCCOCCNC(=O)CC[C@H](NC(=O)CCCCCCCCCCCCCCCCCCC(=O)O)C(=O)O)NC(=O)[C@H](CO)NC(=O)[C@H](CC(=O)O)NC(=O)[C@H](CC(C)C)NC(=O)[C@](C)(Cc1ccccc1)NC(=O)[C@H](CCCCN)NC(=O)[C@H](CO)NC(=O)[C@@H](NC(=O)[C@H](CC(=O)O)NC(=O)[C@H](CO)NC(=O)[C@@H](NC(=O)[C@](C)(Cc1ccccc1)NC(=O)[C@H](CO)NC(=O)CNC(=O)[C@H](CCC(N)=O)NC(=O)[C@H](CO)NC(=O)[C@@H](N)Cc1c[nH]cn1)[C@@H](C)O)C(C)C)C(C)C)C(=O)N[C@@H](C)C(=O)N[C@@H](CC(N)=O)C(=O)N[C@H](C(N)=O)[C@@H](C)O [Peptide 2] (H-HSQGS[αMeF]TSDVSK[αMeF]LDSK([AEEA-AEEA-γGlu-C20 diacid])AAQD[αMeF]VQWIANT-NH2; N-terminus assumed)	4.19	1.28	6.5	–
CC[C@H](C)[C@H](NC(=O)[C@H](Cc1c[nH]c2ccccc12)NC(=O)[C@H](CCC(N)=O)NC(=O)[C@@H](NC(=O)[C@H](Cc1ccccc1)NC(=O)[C@H](CC(=O)O)NC(=O)[C@H](CCC(N)=O)NC(=O)[C@H](C)NC(=O)[C@H](C)NC(=O)[C@H](CCCCNC(=O)CC[C@H](NC(=O)CCCCCCCCCCCCCCCCC(=O)O)C(=O)O)NC(=O)[C@H](CO)NC(=O)[C@H](CC(=O)O)NC(=O)[C@H](CC(C)C)NC(=O)[C@](C)(Cc1ccccc1)NC(=O)[C@H](CCCCN)NC(=O)[C@H](CO)NC(=O)[C@@H](NC(=O)[C@H](CC(=O)O)NC(=O)[C@H](CO)NC(=O)[C@@H](NC(=O)[C@](C)(Cc1ccccc1)NC(=O)[C@H](CO)NC(=O)CNC(=O)[C@H](CCC(N)=O)NC(=O)[C@H](CO)NC(=O)[C@@H](N)Cc1c[nH]cn1)[C@@H](C)O)C(C)C)C(C)C)C(=O)N[C@@H](C)C(=O)N[C@@H](CC(N)=O)C(=O)N[C@H](C(N)=O)[C@@H](C)O [Peptide 3] (H-HSQGS[αMeF]TSDVSK[αMeF]LDSK([γGlu-C18 diacid])AAQDFVQWIANT-NH2; N-terminus assumed)	0.149	0.069	4.3	–
H(Aib)HGS(αMePhe)TSDK(O20C-O2OC-γE-γE-C20diacid)10SK(αMePhe)LDSRAAQD(αMePhe)VQ(Aib)IANT-amide [Peptide 391]	–	–	–	49.1

The next lines start with results.

EC50 [1] [nM]	EC50 [2] [nM]	% Relative Potency Ratio ([2]; Table 6)	Compound	% Relative Potency Ratio [2]
1.17	0.24	9.6	CC[C@H](C)[C@H](NC(=O)[C@H](Cc1c[nH]c2ccccc12)NC(=O)[C@H](CCC(N)=O)NC(=O)[C@@H](NC(=O)[C@H](Cc1ccccc1)NC(=O)[C@H](CC(=O)O)NC(=O)[C@H](CCC(N)=O)NC(=O)[C@H](C)NC(=O)[C@H](C)NC(=O)[C@H](CCCCNC(=O)COCCOCCNC(=O)COCCOCCNC(=O)CC[C@H](NC(=O)CCCCCCCCCCCCCCCCC(=O)O)C(=O)O)NC(=O)[C@H](CO)NC(=O)[C@H](CC(=O)O)NC(=O)[C@H](CC(C)C)NC(=O)[C@](C)(Cc1ccccc1)NC(=O)[C@H](CCCCN)NC(=O)[C@H](CO)NC(=O)[C@@H](NC(=O)[C@H](CC(=O)O)NC(=O)[C@H](CO)NC(=O)[C@@H](NC(=O)[C@](C)(Cc1ccccc1)NC(=O)[C@H](CO)NC(=O)CNC(=O)[C@H](CCC(N)=O)NC(=O)[C@H](CO)NC(=O)[C@@H](N)Cc1c[nH]cn1)[C@@H](C)O)C(C)C)C(C)C)C(=O)N[C@@H](C)C(=O)N[C@@H](CC(N)=O)C(=O)N[C@H](C(N)=O)[C@@H](C)O [Peptide 4] (H-HSQGS[αMeF]TSDVSK[αMeF]LDSK([AEEA-AEEA-γGlu-C18 diacid])AAQDFVQWIANT-NH2)	–
7.14	0.283	49.9	CC[C@H](C)[C@H](NC(=O)C(C)(C)NC(=O)[C@H](CCC(N)=O)NC(=O)[C@@H](NC(=O)[C@](C)(Cc1ccccc1)NC(=O)[C@H](CC(=O)O)NC(=O)[C@H](CCC(N)=O)NC(=O)[C@H](C)NC(=O)[C@H](C)NC(=O)[C@H](CCCCNC(=O)COCCOCCNC(=O)COCCOCCNC(=O)CC[C@H](NC(=O)CC[C@H](NC(=O)CCCCCCCCCCCCCCCCC(=O)O)C(=O)O)C(=O)O)NC(=O)[C@H](CO)NC(=O)[C@H](CC(=O)O)NC(=O)[C@H](CC(C)C)NC(=O)[C@](C)(Cc1ccccc1)NC(=O)[C@H](CCCCN)NC(=O)[C@H](CO)NC(=O)[C@@H](NC(=O)[C@H](CC(=O)O)NC(=O)[C@H](CO)NC(=O)[C@@H](NC(=O)[C@](C)(Cc1ccccc1)NC(=O)[C@H](CO)NC(=O)CNC(=O)[C@H](CCC(N)=O)NC(=O)C(C)(C)NC(=O)[C@@H](N)Cc1c[nH]cn1)[C@@H](C)O)C(C)C)C(C)C)C(=O)N[C@@H](C)C(=O)N[C@@H](CC(N)=O)C(N)=O [Peptide 5] (H-H[Aib]QGS[αMeF]TSDVSK[αMeF]LDSK([AEEA-AEEA-γGlu-γGlu-C18 diacid])AAQD[αMeF]VQ[Aib]IAN-NH2; N-terminus assumed)	–
–	0.274	–	CC(C)C[C@H](NC(=O)[C@H](Cc1c[nH]c2ccccc12)NC(=O)[C@H](CCC(N)=O)NC(=O)[C@@H](NC(=O)[C@H](Cc1ccccc1)NC(=O)[C@H](CC(=O)O)NC(=O)[C@H](CCC(N)=O)NC(=O)[C@H](C)NC(=O)[C@H](CCCNC(=N)N)NC(=O)[C@H](CCCCNC(=O)COCCOCCNC(=O)COCCOCCNC(=O)CC[C@H](NC(=O)CC[C@H](NC(=O)CCCCCCCCCCCCCCCCC(=O)O)C(=O)O)C(=O)O)NC(=O)[C@H](CO)NC(=O)[C@H](CC(=O)O)NC(=O)[C@H](CC(C)C)NC(=O)[C@](C)(Cc1ccccc1)NC(=O)[C@H](CCCCN)NC(=O)[C@H](CO)NC(=O)[C@@H](NC(=O)[C@H](CC(=O)O)NC(=O)[C@H](CO)NC(=O)[C@@H](NC(=O)[C@H](Cc1ccccc1)NC(=O)[C@@H](NC(=O)CNC(=O)[C@H](CCC(N)=O)NC(=O)C(C)(C)NC(=O)[C@@H](N)Cc1c[nH]cn1)[C@@H](C)O)[C@@H](C)O)C(C)C)C(C)C)C(=O)N[C@@H](CC(C)C)C(=O)NC(C)(C)C(=O)N[C@H](C(N)=O)[C@@H](C)O [Peptide 463] (H-H[Aib]QGTFTSDVSK[αMeF]LDSK([AEEA-AEEA-γGlu-γGlu-C18 diacid])RAQDFVQWLL[Aib]T-NH2; N-terminus assumed)	–
